Laboratory results taken from patent US10960013B2, “J-series prostaglandin-ethanolamides as novel therapeutics for skin and/or oral disorders” (East Carolina University, priority 2016, dated 2021).
Entries after “also recorded” stand apart in the source; their conditions may differ.

How the values were obtained:
CHOP10 = CHOP10 expression (ER stress) in excised tumor sections; type: in vivo, C57BL/6 mice; conditions: 0.5 mg/kg for 5 days
Experimental: (§1) To assess the in vivo antineoplastic action of 15dPMJ2, the subcutaneous mouse tumor model was utilized. Melanoma cells were subcutaneously implanted in the flank region of C57BL/6 mice and treated with 0.5 mg/kg 15dPMJ2, vehicle [0.1% DMSO in phosphate buffered saline (PBS)], or were untreated. […] To determine if 15dPMJ2 induced ER stress the expression of CHOP10 was detected in the tumor sections.

[1] = tested on: Melanoma cells subcutaneously implanted in the flank region of C57BL/6 mice; assay: Subcutaneous mouse tumor model, tumor weight; type: in vivo; conditions: 0.5 mg/kg for 5 days; compared to vehicle and untreated animals; P<0.01
Experimental: Tumors grown in C57BL/6 mice were either untreated (UT), vehicle treated (VEH), or treated with 0.5 mg/kg 15dPMJ2 for 5 days. Tumor weights were determined. #P<0.01 compared to untreated; *P<0.01 compared to vehicle treated (one-way ANOVA with Tukey's post-hoc test).
as §1

[2] = tested on: tumorigenic (JWF2) and non-tumorigenic (HaCaT) cells; assay: Cell viability (MTS) of tumorigenic and non-tumorigenic keratinocytes treated with 15dPMJ2; type: cell-based; conditions: 12 hours
Experimental: Tumorigenic and non-tumorigenic keratinocytes were treated with different concentrations of 15dPMJ2, vehicle, or were untreated for 12 hours. Cell viability was detected by conducting MTS experiments. Data represent the mean±SEM of three independent experiments and are expressed as the percent of the untreated cells. *P<0.01.
as §1

CCCCC/C=C/C=C1/C(=O)C=CC1C/C=C/CCCC(=O)NCCO (stereo not shown) [15dPMJ2, 15-deoxy Δ^12,14-prostagladin J2-ethanolamide]
CHOP10 expression in the tumors (ER stress) (CHOP10): markedly increased CHOP10 expression; also recorded: increases ER stress | tumor weight / solid tumor growth [1]: statistically significant reduction in tumor weight; also recorded: inhibits solid tumor growth | toxicity towards tumorigenic keratinocytes relative to non-tumorigenic keratinocytes ([2]; at 5 μM, JWF2 vs HaCaT, MTS cell viability): 4 fold | selective toxicity (cell viability, tumorigenic vs non-tumorigenic keratinocytes) ([2]; different concentrations, MTS): selectively toxic
